From a melting point compilation (Tetko et al.)

melting point [°C] | Structure (SMILES)
173 to 175 | Cc1cc(C(=O)O)c(C)n1-c1nccs1
180 to 182 | Cc1cc(Cl)c(C(=O)O)cc1C
269 to 271 | CNC1=NS(=O)(=O)c2ccccc21
78 to 80 | O=C(O)Cc1ccc(OC(F)F)cc1
106 to 108 | COc1ccc(C(C)=O)cc1CSCC(=O)O
148 to 150 | O=C(O)CCN1C(=O)Cc2ccccc2C1=O
149 to 151 | CC(=O)N(CCc1ccccc1)CC(=O)O
158 to 160 | Nc1ccc(Oc2ccnc3ccccc23)c(F)c1
198 to 200 | Nc1cccc(S(=O)(=O)Nc2ccccc2C(=O)O)c1
73 to 75 | COc1ccccc1Nc1ccc(N)cc1
148 to 150 | CCOc1ccc(N)c(C(N)=O)c1
215 to 217 | C=CCNS(=O)(=O)c1ccc(C(=O)O)cc1
227 to 229 | CC(=O)Nc1scc(-c2cccs2)c1C(=O)O
183 to 185 | COc1ccc(C2C(C(=O)O)CC(=O)N2C)cc1 (centres undefined)
146 to 148 | Cc1ccc(-c2ccccc2C(=O)O)cc1
84 to 86 | COc1cccc(C(=O)CC#N)c1
56 to 58 | Cc1ccc(N(CCC#N)C(=O)CCl)cc1
111 to 113 | O=C(CCSc1ccccc1)c1ccc(F)cc1
65 to 67 | O=Cc1ccccc1OCc1ccncc1
190 to 195 | CC(=O)Nc1ccc2c(CCl)cc(=O)oc2c1
106 to 108 | Cc1ccc(S(=O)(=O)Nc2ccc(O)cc2)s1
188 to 190 | Cc1cccc2[nH]cc(C=O)c12
84 to 86 | O=C(O)C(c1ccccc1)C1CC1 (centres undefined)
79 to 81 | Cc1ccc(N2N=C(Br)CC2C(=O)O)cc1 (centres undefined)
185 to 187 | O=C(O)C1CCCCN1C1=NS(=O)(=O)c2ccccc21 (centres undefined)
126 to 128 | Cc1ccc(C(C)C)c(OCC(=O)O)c1

melting point [°C] | Structure (SMILES)
123 to 125 | NCC(c1ccccc1)c1c[nH]c2ccccc12 (centres undefined)
186 to 188 | COc1ccc(C(CC(=O)O)NC(C)=O)cc1 (centres undefined)
125 to 127 | NNC(=O)c1cc(-c2ccccc2)on1
331 to 333 | O=C(O)CN1C(=O)Cn2c(cc3ccccc32)C1=O
184 to 186 | O=C(O)c1c2c(nc3ccccc13)C(=Cc1ccc(Cl)c(Cl)c1)CC2
103 to 105 | Cc1ccc(NC(=O)OC(C)(C)C)s1
135 to 137 | Cc1ccc(CNC(=O)C(C#N)=CN(C)C)cc1
110 to 114 | Nc1sc2c(c1C(=O)c1cccc(F)c1)CCCC2
137 to 139 | CC(C)(C)c1nc2ccc(N)cc2s1
277 to 279 | Cn1cc(C(=O)O)c(-c2coc3ccccc23)n1
334 to 336 | Nc1cc(C(=O)O)ccc1-n1cnnc1
189 to 191 | Nc1cc(F)c(Br)cc1C(=O)O
147 to 149 | Nc1nc(C=Cc2ccccc2)cs1
127 to 129 | O=C(O)C1CCN(S(=O)(=O)c2ccccc2C(F)(F)F)CC1
180 to 181 | Cc1ccc(NC(=O)CCl)cc1Br
249 to 251 | NC(=O)c1ccc(C(=O)O)nc1
200 to 202 | O=C(O)c1csc(-c2cccc(C(F)(F)F)c2)n1
134 to 136 | CCC(C)n1ncc2c(C(=O)O)cc(C3CC3)nc21 (centres undefined)
102 to 104 | NS(=O)(=O)CCOc1ccccc1
107 to 109 | CC1CNc2ccccc2N(Cc2ccccc2)C1=O (centres undefined)
67 to 69 | CC1Cc2ccccc2N1S(N)(=O)=O (centres undefined)
232 to 234 | COc1ccc(C(N)C(=O)O)cc1 (centres undefined)
150 to 152 | Cc1cnc(C(=O)O)c(C)c1
201 to 203 | CSCc1c(C(=O)O)sc2ccccc12
221 to 223 | CNS(=O)(=O)c1cc(C(=O)O)ccc1OC

Second part, the compound before the results:

Structure (SMILES) | melting point [°C]
CCC(=O)c1ccc(OC)c(OC)c1 | 61 to 63
Cc1c(C(=O)O)nnn1C1CCN(C(=O)OC(C)(C)C)CC1 | 179 to 181
CN1CCN(CCc2ccc(N)cc2)CC1 | 64 to 66
N#Cc1c(F)c(N)c(F)c(F)c1C#N | 159 to 161
C#CCNC(=O)Nc1ccc(C)cc1 | 174 to 176
Cc1ccc(-c2nnc(N)o2)cc1F | 264 to 266
CCOCCS(N)(=O)=O | 30 to 32
CNS(=O)(=O)c1cccc(N)c1C | 125 to 127
N#Cc1cccc(C(=O)N2CCCCC2)c1 | 61 to 63
O=CN1CCN(S(=O)(=O)Cl)CC1 | 103 to 105
Oc1ccc(Sc2ccnc3cc(Cl)ccc23)cc1 | 231 to 233
Nc1cc(Cl)cc2[nH]cnc12 | 89 to 91
CCOC(=O)C(=O)c1csc(N)n1 | 78 to 80
OCCOc1ccc(Br)cc1 | 53 to 55
CN(C)c1cccc(-c2nnc(S)n2N)c1 | 209 to 211
C=CCn1c(S)nc2cc(Cl)ccc2c1=O | 139 to 141
Nc1ccc(N2CCOCC2)cc1C(F)(F)F | 74 to 76
CC(=O)NC(Cc1c[nH]cn1)C(N)=O (centres undefined) | 241 to 243
COCc1cc([N+](=O)[O-])ccc1Cl | 43 to 45
Brc1ccc(NCc2cccnc2)cc1 | 88 to 90
O=C(O)c1cc(S(=O)(=O)Nc2ccc(Br)cc2)ccc1Cl | 217 to 219
O=C1CCCCC(N2C(=O)c3ccccc3C2=O)C1 (centres undefined) | 119 to 121
CC1(C)CC(=O)OC1=O | 29 to 31
O=C(O)CCc1ccc2c(c1)OCCCO2 | 81 to 83

Structure (SMILES) | melting point [°C]
CC(C)(O)c1ccc2[nH]ccc2c1 | 110 to 112
Nc1ccc(-c2nncn2-c2ccccc2)cn1 | 219 to 221
CC1CN(C(=O)CC#N)CC(C)O1 (centres undefined) | 125 to 127
Cc1ccc([N+](=O)[O-])cc1NC(=O)CCCl | 155 to 157
O=C(O)CCNC(=O)c1ccco1 | 135 to 139
CNCCCc1n[nH]c(N)c1C#N | 179 to 181
O=C(O)C1CCN(CC(F)(F)F)CC1 | 62 to 64
COc1cc(CCc2cc(N)n[nH]2)cc(OC)c1 | 107 to 109
CC(=O)c1cc(C(=O)C(Cl)(Cl)Cl)n(C)c1 | 133 to 135
Cc1ccc(NS(=O)(=O)c2ccc(NN)c([N+](=O)[O-])c2)c(C)c1 | 215 to 217
N#CCC1CC2=C(CCCC2=O)O1 (centres undefined) | 104 to 106
Nc1cc(F)c(F)cc1N | 126 to 130
COc1ccc(C(=O)C(C)Br)c(OC)c1 (centres undefined) | 66 to 68
Nc1cc(Br)ccc1S(N)(=O)=O | 142 to 144
O=C(O)c1c(F)ccc(S(=O)(=O)NC2CC2)c1F | 134 to 136
NC1CCC2SCCSC12 (centres undefined) | 49 to 51
COC(=O)Cn1cnc(N)n1 | 136 to 138
NNC(=S)N1CCOCC1 | 181 to 183
N#CCCNc1ccc(F)cc1 | 38 to 42
COc1ccc(Br)cc1C(N)CO (centres undefined) | 99 to 101
O=C(O)C1CC1c1ccc(OC(F)F)cc1 (centres undefined) | 73 to 75
CC(C)C(Br)C(=O)NCc1ccco1 (centres undefined) | 91 to 93
Cc1ccsc1C(N)=S | 117 to 119
Nc1onc(-c2ccc(Br)s2)c1-c1ccc(F)cc1 | 141 to 143

Structure (SMILES) | melting point [°C]
CC(Cl)C(=O)Nc1cccc(S(=O)(=O)N(C)C)c1 (centres undefined) | 163 to 167
CCOC(=O)C(=O)c1ccc2c(c1)OCCO2 | 65 to 67
CC(Cl)c1nnc(-c2cccs2)o1 (centres undefined) | 211 to 213
Cc1nn(C)c(C)c1CC(=O)O | 223 to 225
CC(C)(C)OC(=O)N1CC(=O)NC2CNCCC21 (centres undefined) | 144 to 146
Cc1ccc(C(=O)C2CC2)cc1 | 47 to 49
CC(C)Cn1cc(C(F)F)c(C(=O)O)n1 | 94 to 96
Cc1cc([N+](=O)[O-])n[nH]1 | 153 to 155
O=C1CCC(Cc2cccc(O)c2)O1 (centres undefined) | 102 to 104
COCCS(=O)(=O)Cc1cccc(S(=O)(=O)Cl)c1 | 109 to 111
O=C(O)C1CCN(S(=O)(=O)c2cc([N+](=O)[O-])ccc2Cl)CC1 | 42 to 44
CS(=O)(=O)Nc1ccc(N)c(Cl)c1 | 129 to 131
CN(C)S(=O)(=O)CC(=O)O | 130 to 132
O=Cc1c(Cl)nc2ccccn12 | 124 to 126
Nc1cc(C2CCNCC2)n[nH]1 | 151 to 153
CN(C)CCC(=O)O | 130 to 132
Cc1ccc(S(=O)(=O)N(C)Cc2ccc(C(=O)NN)cc2)cc1 | 66 to 68
COC(=O)c1nc(Cl)ccc1S(=O)(=O)Cl | 143 to 145
CCS(=O)(=O)c1ccc(CN)cc1 | 51 to 53
COC(=O)C(N)c1ccc(F)cc1F (centres undefined) | 39 to 41
NNC(=O)NCc1ccco1 | 88 to 90
NNC(=O)c1ccc(NS(=O)(=O)c2cccs2)cc1 | 178 to 180
Cc1nccn1-c1ccc(C#N)cn1 | 213 to 215
CC(C)(C)OC(=O)NC12CCC(C(=O)O)(C1)C2 | 169 to 171

Structure (SMILES) | melting point [°C]
O=c1[nH]c2ccsc2c(=O)o1 | 218 to 220
COc1ccc(C(=O)N(C)C)cc1N | 119 to 121
Cc1ccc(S(=O)(=O)N(C)C(C)C)cc1N | 117 to 119
CC(=O)c1c[nH]c(C(=O)C(Cl)(Cl)Cl)c1 | 190 to 192
CC(C)(C)c1cccc2c1OCC2=O | 69 to 71
CC(C)NS(=O)(=O)c1ccc(NN)nc1 | 141 to 143
N#Cc1ccc2nc(N)ncc2c1 | 344 to 346
O=S(=O)(Cl)C12CC3CC(CC(C3)C1)C2 | 121 to 123
Nc1ccc(Sc2cccs2)cn1 | 77 to 79
N#Cc1nc(N)[nH]c1C#N | 270 to 272
Cc1ccc(N2CCCNC(=O)C2)cc1 | 181 to 183
CS(=O)(=O)Cc1ccc(S(=O)(=O)Cl)cc1 | 127 to 129
Cn1c(C=O)nc2cc(C(F)(F)F)ccc21 | 111 to 113
CN(C)CCOc1cc(N)ccn1 | 87 to 89
CCOc1ccc(NC(N)=S)cc1 | 164 to 166
Nc1nnc(-c2ccc3c(c2)OCO3)o1 | 271 to 273
NS(=O)(=O)CCCC(=O)O | 108 to 111
CCNc1ccc(C)nn1 | 99 to 101
CS(=O)(=O)NCCC1CCCCN1 (centres undefined) | 105 to 107
Cc1[nH]c(C(=O)O)c(C)c1C(=O)O | 244 to 246
CC1CCc2c(sc3nc(CN4CCOCC4)nc(Cl)c23)C1 (centres undefined) | 55 to 57
